Active and inactive are the calls of the source. The calls are words filed in the database; no cut-off is given here.
What was measured:
[1] = biological target: Protein kinase C iota type (Homo sapiens) (UniProt P41743); test: Inhibition of human PKCiota at 1 uM using 3xChocktide-PKC as substrate in presence of 33P-ATP by ProQinase assay
[2] = biological target: Serine/threonine-protein kinase N1 (Homo sapiens) (UniProt Q16512); test: Inhibition of human PRK1 at 1 uM using RBER-CHKtide as substrate in presence of 33P-ATP by ProQinase assay
[3] = biological target: Serine/threonine-protein kinase TBK1 (Homo sapiens) (UniProt Q9UHD2); test: Inhibition of recombinant human N-terminal GST-tagged TBK1 (1 to 729 residues) expressed in baculovirus infected Sf21 cells assessed as remaining activity at 1 uM using KKKKERLLDDRHDSGLDSMKDEE as substrate incubated for 30 mins in presence of [gamma-33P]ATP by filter binding method relative to control
[4] = biological target: Serine/threonine-protein kinase 17A (Homo sapiens) (UniProt Q9UEE5); test: Inhibition of human STK17A at 1 uM using RB-CTF as substrate in presence of 33P-ATP by ProQinase assay
[5] = biological target: Mitogen-activated protein kinase kinase kinase kinase 4 (Homo sapiens) (UniProt O95819); test: Inhibition of human MAP4K4 at 1 uM using casein as substrate in presence of 33P-ATP by ProQinase assay
[6] = biological target: SRSF protein kinase 3 (Homo sapiens) (UniProt Q9UPE1); test: Inhibition of human STK23 at 1 uM using RBER-CHKtide as substrate in presence of 33P-ATP by ProQinase assay
[7] = biological target: Serine/threonine-protein kinase PLK1 (Homo sapiens) (UniProt P53350); test: Inhibition of human PLK1 at 1 uM using RBER-CHKtide as substrate in presence of 33P-ATP by ProQinase assay
[8] = test system: RAC-beta serine/threonine-protein kinase (Homo sapiens), P31751 [S474D]; test: Inhibition of recombinant human N-terminal His6-tagged PKBbeta S474D mutant (120 to 481 residues) expressed in baculovirus infected Sf21 cells assessed as remaining activity at 1 uM using crosstide peptide as substrate incubated for 30 mins in presence of [gamma-33P]ATP by filter binding method relative to control
[9] = biological target: Ephrin type-A receptor 5 (Homo sapiens) (UniProt P54756); test: Inhibition of human EPHA5 at 1 uM using polyEY as substrate in presence of 33P-ATP by ProQinase assay
[10] = biological target: Ribosomal protein S6 kinase beta-2 (Homo sapiens) (UniProt Q9UBS0); test: Inhibition of human S6K-beta at 1 uM using RBER-CHKtide as substrate in presence of 33P-ATP by ProQinase assay
[11] = biological target: NT-3 growth factor receptor (Homo sapiens) (UniProt Q16288); test: Inhibition of human TRKC at 1 uM using polyEy as substrate in presence of 33P-ATP by ProQinase assay
[12] = biological target: MAP/microtubule affinity-regulating kinase 3 (Homo sapiens) (UniProt P27448); test: Inhibition of human MARK3 at 1 uM using RBER-CHKtide as substrate in presence of 33P-ATP by ProQinase assay
[13] = biological target: Serine/threonine-protein kinase PAK 1 (Homo sapiens) (UniProt Q13153); test: Inhibition of human PAK1 at 1 uM using RBER-CHKtide as substrate in presence of 33P-ATP by ProQinase assay
[14] = biological target: Serine/threonine-protein kinase MRCK alpha (Homo sapiens) (UniProt Q5VT25); test: Inhibition of human CDC42BPA at 1 uM using RB-S6P as substrate in presence of 33P-ATP by ProQinase assay
[15] = biological target: MAP kinase-activated protein kinase 5 (Homo sapiens) (UniProt Q8IW41); test: Inhibition of recombinant human His6-tagged PRAK (1 to 471 residues) expressed in baculovirus infected Sf21 cells assessed as remaining activity at 1 uM using phosphorylase b peptide as substrate incubated for 30 mins in presence of [gamma-33P]ATP by filter binding method relative to control
[16] = biological target: SRSF protein kinase 1 (Homo sapiens) (UniProt Q96SB4); test: Inhibition of human SRPK1 at 1 uM using MBP as substrate in presence of 33P-ATP by ProQinase assay
[17] = biological target: Mitogen-activated protein kinase 12 (Homo sapiens) (UniProt P53778); test: Inhibition of human P38gamma at 1 uM using RBER-IRStide as substrate in presence of 33P-ATP by ProQinase assay
[18] = biological target: Mitogen-activated protein kinase 9 (Homo sapiens) (UniProt P45984); test: Inhibition of recombinant human N-terminal His6-tagged JNK2 (1 to 424 residues) expressed in baculovirus infected Sf21 cells assessed as remaining activity at 1 uM using ATF2 as substrate incubated for 30 mins in presence of [gamma-33P]ATP by filter binding method relative to control
[19] = biological target: Serine/threonine-protein kinase Nek4 (Homo sapiens) (UniProt P51957); test: Inhibition of human NEK4 at 1 uM using MBP as substrate in presence of 33P-ATP by ProQinase assay
[20] = biological target: Serine/threonine-protein kinase Nek11 (Homo sapiens) (UniProt Q8NG66); test: Inhibition of human NEK11 at 1 uM using MBP as substrate in presence of 33P-ATP by ProQinase assay
[21] = biological target: Dual specificity tyrosine-phosphorylation-regulated kinase 2 (Homo sapiens) (UniProt Q92630); test: Inhibition of recombinant human N-terminal GST-tagged DYRK2 (3 to 528 residues) expressed in Escherichia coli assessed as remaining activity at 1 uM using KKISGRLSPIMTEQ as substrate incubated for 30 mins in presence of [gamma-33P]ATP by filter binding method relative to control
[22] = biological target: CDK3/Cyclin E (Homo sapiens) (UniProt P24864+Q00526); test: Inhibition of human CDK3/CyclinE1 at 1 uM using RBER-CHKtide as substrate in presence of 33P-ATP by ProQinase assay; type: protein-complex assay
[23] = biological target: Phosphatidylinositol 4,5-bisphosphate 3-kinase catalytic subunit delta isoform (Homo sapiens) (UniProt O00329); test: Inhibition of p100delta (unknown origin) at 1 uM
[24] = biological target: Tyrosine-protein kinase JAK2 (Homo sapiens) (UniProt O60674); test: Inhibition of human JAK2 at 1 uM using poly(Ala,Glu,Lys,Tyr) as substrate in presence of 33P-ATP by ProQinase assay
[25] = biological target: Serine/threonine-protein kinase Nek9 (Homo sapiens) (UniProt Q8TD19); test: Inhibition of human NEK9 at 1 uM using RBER-GSK3 as substrate in presence of 33P-ATP by ProQinase assay
[26] = biological target: Inhibitor of nuclear factor kappa-B kinase subunit beta (Homo sapiens) (UniProt O14920); test: Inhibition of human IKKbeta at 1 uM using RBER-CHKtide as substrate in presence of 33P-ATP by ProQinase assay

Chain of Serine/threonine-protein kinase MRCK alpha (Homo sapiens) (Q5VT25 whole entry, the tested form may be a part): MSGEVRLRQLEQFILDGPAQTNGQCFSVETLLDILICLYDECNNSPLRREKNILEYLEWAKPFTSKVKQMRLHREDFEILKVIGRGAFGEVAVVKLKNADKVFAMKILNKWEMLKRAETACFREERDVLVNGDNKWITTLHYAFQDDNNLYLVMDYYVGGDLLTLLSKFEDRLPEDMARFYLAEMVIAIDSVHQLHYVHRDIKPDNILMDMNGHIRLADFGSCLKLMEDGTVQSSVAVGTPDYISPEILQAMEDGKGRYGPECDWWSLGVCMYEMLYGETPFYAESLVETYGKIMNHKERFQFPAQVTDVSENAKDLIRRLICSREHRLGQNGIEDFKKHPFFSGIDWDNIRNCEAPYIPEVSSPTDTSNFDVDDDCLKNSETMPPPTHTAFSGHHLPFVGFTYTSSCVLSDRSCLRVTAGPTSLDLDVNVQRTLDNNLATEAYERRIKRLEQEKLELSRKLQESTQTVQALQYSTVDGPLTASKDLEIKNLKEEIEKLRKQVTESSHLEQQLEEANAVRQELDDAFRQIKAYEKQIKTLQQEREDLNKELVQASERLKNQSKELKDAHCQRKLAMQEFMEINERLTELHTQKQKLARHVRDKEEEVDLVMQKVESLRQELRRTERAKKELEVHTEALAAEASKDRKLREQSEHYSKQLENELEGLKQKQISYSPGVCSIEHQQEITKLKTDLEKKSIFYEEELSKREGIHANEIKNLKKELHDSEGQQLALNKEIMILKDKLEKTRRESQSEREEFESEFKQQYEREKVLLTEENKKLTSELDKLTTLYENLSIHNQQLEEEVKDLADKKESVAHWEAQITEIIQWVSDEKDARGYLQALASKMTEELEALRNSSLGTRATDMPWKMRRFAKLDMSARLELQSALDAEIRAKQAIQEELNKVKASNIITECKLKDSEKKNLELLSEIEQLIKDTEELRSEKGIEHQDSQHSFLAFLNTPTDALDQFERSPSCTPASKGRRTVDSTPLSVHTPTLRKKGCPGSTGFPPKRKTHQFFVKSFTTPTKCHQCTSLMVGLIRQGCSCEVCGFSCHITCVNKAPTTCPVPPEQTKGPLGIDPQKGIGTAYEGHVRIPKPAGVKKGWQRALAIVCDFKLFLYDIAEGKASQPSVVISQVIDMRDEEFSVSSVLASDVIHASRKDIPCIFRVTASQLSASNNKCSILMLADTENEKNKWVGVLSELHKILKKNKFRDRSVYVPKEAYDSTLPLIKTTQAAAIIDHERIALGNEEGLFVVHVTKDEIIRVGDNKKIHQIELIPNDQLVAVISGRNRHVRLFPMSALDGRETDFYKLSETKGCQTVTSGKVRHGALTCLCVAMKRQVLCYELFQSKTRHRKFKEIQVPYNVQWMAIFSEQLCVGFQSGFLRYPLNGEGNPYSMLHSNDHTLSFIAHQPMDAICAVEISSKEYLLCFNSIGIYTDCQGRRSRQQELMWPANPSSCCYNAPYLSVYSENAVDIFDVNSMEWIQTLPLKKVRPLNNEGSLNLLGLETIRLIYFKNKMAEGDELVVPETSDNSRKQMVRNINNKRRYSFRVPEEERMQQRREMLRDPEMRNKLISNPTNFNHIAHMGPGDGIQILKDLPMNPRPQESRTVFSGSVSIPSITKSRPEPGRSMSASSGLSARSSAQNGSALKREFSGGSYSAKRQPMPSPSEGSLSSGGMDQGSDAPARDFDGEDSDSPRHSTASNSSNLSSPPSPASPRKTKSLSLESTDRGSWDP
Chain of Tyrosine-protein kinase JAK2 (Homo sapiens) (O60674 whole entry): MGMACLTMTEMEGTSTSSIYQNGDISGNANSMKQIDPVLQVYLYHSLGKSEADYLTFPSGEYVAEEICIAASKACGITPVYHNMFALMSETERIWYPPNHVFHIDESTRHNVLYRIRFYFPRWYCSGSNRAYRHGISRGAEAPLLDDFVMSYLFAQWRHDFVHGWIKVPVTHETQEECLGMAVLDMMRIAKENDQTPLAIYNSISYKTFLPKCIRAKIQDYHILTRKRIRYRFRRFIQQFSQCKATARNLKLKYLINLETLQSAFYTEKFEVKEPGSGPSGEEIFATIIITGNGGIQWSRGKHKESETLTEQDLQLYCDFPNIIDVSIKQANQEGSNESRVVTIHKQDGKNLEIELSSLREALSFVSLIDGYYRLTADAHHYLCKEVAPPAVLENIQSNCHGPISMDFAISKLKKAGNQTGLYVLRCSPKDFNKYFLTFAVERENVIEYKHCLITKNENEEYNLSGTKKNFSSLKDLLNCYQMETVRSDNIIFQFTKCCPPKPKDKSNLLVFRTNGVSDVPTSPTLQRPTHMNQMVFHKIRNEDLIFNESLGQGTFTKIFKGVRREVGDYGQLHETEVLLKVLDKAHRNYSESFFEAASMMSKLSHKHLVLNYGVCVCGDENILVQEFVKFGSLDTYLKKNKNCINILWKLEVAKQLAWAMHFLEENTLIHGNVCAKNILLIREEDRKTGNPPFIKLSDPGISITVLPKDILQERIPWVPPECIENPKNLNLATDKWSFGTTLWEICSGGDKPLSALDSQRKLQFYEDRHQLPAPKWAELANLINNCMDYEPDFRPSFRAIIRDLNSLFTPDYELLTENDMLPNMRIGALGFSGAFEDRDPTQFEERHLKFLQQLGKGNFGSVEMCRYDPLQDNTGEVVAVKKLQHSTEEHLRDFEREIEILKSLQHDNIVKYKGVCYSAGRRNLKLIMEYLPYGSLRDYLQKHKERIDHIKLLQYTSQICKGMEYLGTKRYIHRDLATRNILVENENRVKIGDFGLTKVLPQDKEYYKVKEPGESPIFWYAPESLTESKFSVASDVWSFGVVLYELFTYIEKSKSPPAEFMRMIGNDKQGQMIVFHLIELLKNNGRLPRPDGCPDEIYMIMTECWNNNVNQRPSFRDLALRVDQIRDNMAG
Chain of Mitogen-activated protein kinase kinase kinase kinase 4 (Homo sapiens) (O95819 2-1239 limits assumed): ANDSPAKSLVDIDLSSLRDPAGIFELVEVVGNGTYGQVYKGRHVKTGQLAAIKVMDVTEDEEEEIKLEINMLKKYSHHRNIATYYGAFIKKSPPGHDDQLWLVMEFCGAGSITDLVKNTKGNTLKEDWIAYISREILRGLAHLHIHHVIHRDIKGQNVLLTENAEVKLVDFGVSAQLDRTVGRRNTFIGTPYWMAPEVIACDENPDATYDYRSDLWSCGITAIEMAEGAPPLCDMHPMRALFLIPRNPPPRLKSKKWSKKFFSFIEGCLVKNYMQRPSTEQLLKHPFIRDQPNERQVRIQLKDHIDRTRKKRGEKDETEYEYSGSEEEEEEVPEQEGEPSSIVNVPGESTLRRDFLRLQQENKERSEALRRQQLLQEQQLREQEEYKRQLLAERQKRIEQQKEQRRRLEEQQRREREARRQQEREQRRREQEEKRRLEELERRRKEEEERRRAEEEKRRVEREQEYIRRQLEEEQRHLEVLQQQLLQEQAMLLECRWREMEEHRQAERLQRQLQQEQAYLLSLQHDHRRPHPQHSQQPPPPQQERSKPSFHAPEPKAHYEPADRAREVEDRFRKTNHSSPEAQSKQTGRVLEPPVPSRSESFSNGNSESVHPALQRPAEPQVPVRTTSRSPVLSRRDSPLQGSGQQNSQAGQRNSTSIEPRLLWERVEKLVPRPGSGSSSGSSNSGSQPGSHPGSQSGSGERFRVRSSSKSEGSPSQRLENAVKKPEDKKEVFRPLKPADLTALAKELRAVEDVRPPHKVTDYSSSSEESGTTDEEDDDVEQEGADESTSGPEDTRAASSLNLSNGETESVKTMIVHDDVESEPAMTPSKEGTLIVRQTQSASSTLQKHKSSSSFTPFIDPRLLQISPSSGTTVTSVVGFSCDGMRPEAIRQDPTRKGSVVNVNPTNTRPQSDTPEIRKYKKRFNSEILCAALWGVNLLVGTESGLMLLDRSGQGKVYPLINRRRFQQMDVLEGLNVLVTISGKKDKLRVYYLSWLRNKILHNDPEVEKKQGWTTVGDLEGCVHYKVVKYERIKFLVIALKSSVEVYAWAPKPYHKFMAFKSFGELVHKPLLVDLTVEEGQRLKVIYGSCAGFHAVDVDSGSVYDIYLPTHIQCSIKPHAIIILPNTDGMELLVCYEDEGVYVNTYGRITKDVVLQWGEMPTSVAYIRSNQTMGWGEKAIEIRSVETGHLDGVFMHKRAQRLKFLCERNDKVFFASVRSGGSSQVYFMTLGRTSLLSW
Chain of Protein kinase C iota type (Homo sapiens) (P41743 whole entry): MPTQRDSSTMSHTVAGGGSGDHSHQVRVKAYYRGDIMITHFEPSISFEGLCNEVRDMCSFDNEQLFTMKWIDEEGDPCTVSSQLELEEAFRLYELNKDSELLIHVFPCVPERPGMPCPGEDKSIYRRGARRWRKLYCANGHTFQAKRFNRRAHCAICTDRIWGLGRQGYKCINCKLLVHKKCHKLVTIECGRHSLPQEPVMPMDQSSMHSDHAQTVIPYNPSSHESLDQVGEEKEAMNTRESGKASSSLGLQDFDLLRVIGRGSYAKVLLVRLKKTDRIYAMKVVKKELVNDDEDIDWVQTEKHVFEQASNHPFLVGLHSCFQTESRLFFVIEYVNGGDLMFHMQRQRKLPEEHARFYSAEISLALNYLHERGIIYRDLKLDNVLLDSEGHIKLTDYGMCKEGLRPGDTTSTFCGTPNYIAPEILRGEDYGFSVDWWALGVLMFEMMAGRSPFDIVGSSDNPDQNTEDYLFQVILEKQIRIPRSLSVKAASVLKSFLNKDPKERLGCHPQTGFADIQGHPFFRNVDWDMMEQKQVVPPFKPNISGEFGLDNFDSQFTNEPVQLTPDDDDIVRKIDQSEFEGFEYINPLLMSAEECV
Chain of Serine/threonine-protein kinase 17A (Homo sapiens) (Q9UEE5 whole entry): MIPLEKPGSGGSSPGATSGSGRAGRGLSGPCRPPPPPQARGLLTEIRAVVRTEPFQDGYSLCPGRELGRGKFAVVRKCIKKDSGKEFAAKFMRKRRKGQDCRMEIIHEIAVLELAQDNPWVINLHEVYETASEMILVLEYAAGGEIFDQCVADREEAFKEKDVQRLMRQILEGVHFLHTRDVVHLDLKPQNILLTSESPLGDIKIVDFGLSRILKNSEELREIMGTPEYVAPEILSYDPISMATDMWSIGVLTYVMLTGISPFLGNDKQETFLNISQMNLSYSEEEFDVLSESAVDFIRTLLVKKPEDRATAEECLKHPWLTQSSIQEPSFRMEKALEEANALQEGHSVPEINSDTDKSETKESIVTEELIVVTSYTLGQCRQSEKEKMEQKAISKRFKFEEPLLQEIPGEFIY

With CC(C)(O)CNc1ncc(-c2ccnc(Nc3ccnc(Cl)c3)n2)c(CC2CC2)n1 the inhibition [1] was “inactive”, the inhibition [2] was “inactive” and the Activity [3] was 125%. For the same molecule, the inhibition [4] was “inactive”, the inhibition [5] was “inactive” and the inhibition [6] was “inactive”. For the same molecule, the inhibition [7] was “inactive”, the Activity [8] was 123% and the inhibition [9] was “inactive”. For the same molecule, the inhibition [10] was “inactive”, the inhibition [11] was “inactive” and the inhibition [12] was “inactive”. The inhibition [13] was “inactive”, the inhibition [14] was “inactive” and the Activity [15] was 105%. For the same molecule, the inhibition [16] was “inactive”, the inhibition [17] was “inactive” and the Activity [18] was 113%. For the same molecule, the inhibition [19] was “inactive”, the inhibition [20] was “inactive” and the Activity [21] was 109%. The inhibition [22] was “inactive”, the inhibition [23] was “inactive” and the inhibition [24] was “inactive”. For the same molecule, the inhibition [25] was “inactive” and the inhibition [26] was “inactive”.

Source: ChEMBL document CHEMBL5705899 (Biochem J, 2014)
